Data published in article PMC4266796 (International Journal for Parasitology: Drugs and Drug …, 2014).
“Also recorded” adds a separate entry of the source. Structures can show the parent of a compound that is named as a salt. Where two headings read alike, the source gives them in different places.

What was measured:
in vitro = conditions: Aedes albopictus
L. sigmodontis = assay: In vivo L. sigmodontis screening assay, worm length; set-up: species or system Litomosoides sigmodontis in BALB/c mice
Wolbachia = conditions: ref Hermans et al., 2001; cited from earlier work
[1] = test system: W. pipientis wAlbB in C6/36 (wAlbB) cells; assay: microbe, parasite or virus in culture; format: cell-based, Wolbachia pipientis; conditions: for Dose response behaviour in titration series: 6 doses from 10 to 0.3 μM; for log reduction at 10 µM: Wolbachia pipientis, C6/36, 216 h, read-out: 16S log drop, 10 μM, 9 days, single agent screening
[2] = test system: Wolbachia of L. sigmodontis; assay: animal or person; format: in vivo, Wolbachia of Litomosoides sigmodontis in BALB/c mice; conditions: for log reduction at 25 mg/kg/day: ip, 240 h, read-out: wLs ftsz log drop in vivo
C6/36 (wAlbB) cells = conditions: 10 μM, luminescence vs vehicle-treated control
O gutturosa Wolbachia = format: cell-based, Wolbachia of Onchocerca gutturosa; conditions: for Reduction in Wolbachia (wsp:gst log drop from vehicle controls): 5 days; for Effect on Wolbachia load (in words): 12.5 to 0.195 μM
[3] = reduced regimen, 25 MKD for 10 days

Compound: Nc1nc(NC2CC2)c2ncn([C@H]3C=C[C@@H](CO)C3)c2n1 [Abacavir Sulfate]
- cytotoxicity at 10 µM (in vitro): 0%

Compound: O=C(O)c1cn(C2CC2)c2cc(N3CCNCC3)c(F)cc2c1=O [Ciprofloxacin hydrochloride]
- Effect on worm length (in words) (L. sigmodontis; standard doses tested): did not reduce
- Activity in other cell-based Wolbachia assays (Wolbachia): no activity
- cytotoxicity at 10 µM (in vitro): 0%

Compound: COc1cc(/C=C/C(=O)CC(=O)/C=C/c2ccc(O)c(OC)c2)ccc1O [Curcumin]
- Dose response behaviour in titration series [1]: activity only at the highest concentration
- cytotoxicity at 10 µM (in vitro): 0%

Compound: CC(=O)Oc1cccc2c1C(=O)c1c(OC(C)=O)cc(C(=O)O)cc1C2=O [Diacerein]
- cytotoxicity at 10 µM (in vitro): 0%

Compound: CCCCC(CC)COC(=O)CC(C(=O)OCC(CC)CCCC)S(=O)(=O)[O-].CCCCC(CC)COC(=O)CC(C(=O)OCC(CC)CCCC)S(=O)(=O)[O-].[Ca+2] (centres unmarked) [Docusate Calcium]
- Ls length reduction in vivo (%) (L. sigmodontis; 200 MKD IP for 14 days): 20.0%
- wLs ftsz log drop in vivo ([2]; 200 MKD IP for 14 days): 1.0 log
- Cytotoxicity (%) (C6/36 (wAlbB) cells): 0%

Compound: C[C@H]1c2cccc(O)c2C(=O)C2=C(O)[C@]3(O)C(=O)C(C(N)=O)=C(O)[C@@H](N(C)C)[C@@H]3[C@@H](O)[C@@H]21 [Doxycycline]
- 16S log drop in vitro ([1]; doxycycline gold standard, 7 μM, 9 days): 1.6 log
- Reduction in Wolbachia (wsp:gst log drop from vehicle controls) (O gutturosa Wolbachia; 0.195 μM): 0.77 log
- Reduction in Wolbachia (wsp:gst log drop from vehicle controls) (O gutturosa Wolbachia; 0.781 μM): 0.14 log
- Reduction in Wolbachia (wsp:gst log drop from vehicle controls) (O gutturosa Wolbachia; 3.125 μM): 0.21 log
- Reduction in Wolbachia (wsp:gst log drop from vehicle controls) (O gutturosa Wolbachia; 12.5 μM): 0.80 log
- Effect on Wolbachia load (in words) (O gutturosa Wolbachia): reduced the Wolbachia load
- log reduction at 25 mg/kg/day [2]: 2.2
- cytotoxicity at 7 µM (in vitro): 0%

Compound: CCC1(C)CC(=O)NC1=O (centres unmarked) [Ethosuximide]
- log reduction at 10 µM [1]: ≥ 1.6

Compound: CCOc1ccc2nc(S(N)(=O)=O)sc2c1 [Ethoxzolamide]
- cytotoxicity at 10 µM (in vitro): 19%

Compound: COc1ccc2c(c1)c(CC(=O)O)c(C)n2C(=O)c1ccc(Cl)cc1 [Indomethacin]
- log reduction at 10 µM [1]: ≥ 1.6
- cytotoxicity at 10 µM (in vitro): 0%

Compound: NNC(=O)c1ccncc1 [Isoniazid]
- cytotoxicity at 10 µM (in vitro): 0.3%

Compound: CO[C@@H]1[C@@H](O[C@@H]2O[C@H](C)[C@@H](O[C@H]3C[C@@](C)(O)[C@@H](OC(=O)CC(C)C)[C@H](C)O3)[C@H](N(C)C)[C@H]2O)[C@@H](CC=O)C[C@@H](C)[C@@H](O)/C=C/C=C/C[C@@H](C)OC(=O)C[C@H]1O [Kitasamycin]
- log reduction at 10 µM [1]: ≥ 1.6

Compound: CCOC(=O)N1CCC(=C2c3ccc(Cl)cc3CCc3cccnc32)CC1 [Loratadine]
- Effect on worm length (in words) (L. sigmodontis; standard doses tested): no effect
- cytotoxicity at 10 µM (in vitro): 20.7%

Compound: C=C1c2cccc(O)c2C(=O)C2=C(O)[C@]3(O)C(=O)C(C(N)=O)=C(O)[C@@H](N(C)C)[C@@H]3[C@@H](O)[C@H]12 [Methacycline hydrochloride]
- Dose response behaviour in titration series [1]: active at all tested concentrations to the same extent
- log reduction at 10 µM [1]: ≥ 1.6
- cytotoxicity at 10 µM (in vitro): 0%

Compound: CN(C)c1ccc(O)c2c1C[C@H]1C[C@H]3[C@H](N(C)C)C(O)=C(C(N)=O)C(=O)[C@@]3(O)C(O)=C1C2=O [Minocycline]
- log reduction at 10 µM [1]: ≥ 1.6
- Effect on worm length (in words) (L. sigmodontis; standard doses tested): significantly reduced
- log reduction at 25 mg/kg/day [2]: 3.78
- Reduction in Wolbachia load compared with the same dose/regimen of doxycycline ([2]; methacycline 50 MKD, minocycline 25 MKD for 10 days, P < 0.05): significantly greater
- Activity in the L. sigmodontis mouse model (in words) ([2]; mouse, in vivo): demonstrated activity
- Effect on Wolbachia load (in words) [2, 3]: significantly reduced
- Effect on Wolbachia load (in words) ([2]; standard doses tested): significantly reduced
- cytotoxicity at 10 µM (in vitro): 0%

Compound: COc1c(N2C[C@@H]3CCCN[C@@H]3C2)c(F)cc2c(=O)c(C(=O)O)cn(C3CC3)c12 [Moxifloxacin]
- Effect on Wolbachia load (in words) (O gutturosa Wolbachia): greatly reduced the Wolbachia load at all concentrations tested
- Activity in the L. sigmodontis mouse model (in words) ([2]; levofloxacin and moxifloxacin: data not shown / unpublished observations): active

Compound: CC1(C)NC(=O)N(c2ccc([N+](=O)[O-])c(C(F)(F)F)c2)C1=O [Nilutamide]
- cytotoxicity at 10 µM (in vitro): 0.01%

Compound: NC[C@@H]1O[C@H](O[C@H]2[C@@H](O)[C@H](O[C@@H]3[C@@H](O)[C@H](N)C[C@H](N)[C@H]3O[C@H]3O[C@H](CO)[C@@H](O)[C@H](O)[C@H]3N)O[C@@H]2CO)[C@H](N)[C@@H](O)[C@@H]1O [Paromomycin sulfate]
- Dose response behaviour in titration series [1]: showed a dose response
- log reduction at 10 µM [1]: ≥ 1.6
- cytotoxicity at 10 µM (in vitro): 0%

Compound: CO[C@H]1/C=C/O[C@@]2(C)Oc3c(C)c(O)c4c(O)c(c(/C=N/N5CCN(C6CCCC6)CC5)c(O)c4c3C2=O)NC(=O)/C(C)=C\C=C\[C@H](C)[C@H](O)[C@@H](C)[C@@H](O)[C@@H](C)[C@H](OC(C)=O)[C@@H]1C [Rifapentine]
- log reduction at 10 µM [1]: ≥ 1.6
- Reduction in Wolbachia (wsp:gst log drop from vehicle controls) (O gutturosa Wolbachia; 0.195 μM): 0.99 log
- Reduction in Wolbachia (wsp:gst log drop from vehicle controls) (O gutturosa Wolbachia; 0.781 μM): 0.78 log
- Reduction in Wolbachia (wsp:gst log drop from vehicle controls) (O gutturosa Wolbachia; 3.125 μM): 0.77 log
- Reduction in Wolbachia (wsp:gst log drop from vehicle controls) (O gutturosa Wolbachia; 12.5 μM): 1.04 log
- Effect on Wolbachia load (in words) (O gutturosa Wolbachia): greatly reduced the Wolbachia load at all concentrations tested
- Effect on worm length (in words) (L. sigmodontis; standard doses tested): significantly reduced
- Activity in the L. sigmodontis mouse model (in words) ([2]; mouse, in vivo): demonstrated activity
- Effect on Wolbachia load (in words) ([2]; standard doses tested): significantly reduced
- cytotoxicity at 10 µM (in vitro): 20%

Compound: C[C@@H]1CN(c2c(F)c(N)c3c(=O)c(C(=O)O)cn(C4CC4)c3c2F)C[C@H](C)N1 [Sparfloxacin]
- Effect on worm length (in words) (L. sigmodontis; [3]): did not significantly affect
- Effect on worm length (in words) (L. sigmodontis; standard doses tested): significantly reduced
- log reduction at 25 mg/kg/day [2]: 0.6
- Activity in the L. sigmodontis mouse model (in words) ([2]; mouse, in vivo): demonstrated activity; also recorded: active
- Effect on Wolbachia load (in words) [2, 3]: did not significantly affect
- Effect on Wolbachia load (in words) ([2]; standard doses tested): significantly reduced
- cytotoxicity at 10 µM (in vitro): 0%

Compound: [H]/N=C(/N)NS(=O)(=O)c1ccc(N)cc1 [Sulfaguanidine]
- Dose response behaviour in titration series [1]: active at all tested concentrations to the same extent

Compound: C[C@H]1COc2c(N3CCN(C)CC3)c(F)cc3c(=O)c(C(=O)O)cn1c23 [levofloxacin]
- Activity in the L. sigmodontis mouse model (in words) ([2]; mouse, in vivo): inactive
